Reference: ChEMBL document CHEMBL5370574, “Discovery and Characterization of Moracin C as an Anti-Gouty Arthritis/Hyperuricemia Candidate by Docking-Based Virtual Screening and Pharmacological Evaluation” (J Nat Prod, 2023)
Activity calls are given as the source filed them. The calls are words filed in the database; no cut-off is given here.

Experiments:
[1] = molecular target: T1, Xanthine dehydrogenase/oxidase (Homo sapiens, UniProt P47989); assay: Inhibition of XOD (unknown origin) using xanthine as substrate at 1 uM preincubated for 30 mins followed by xanthine addition measured after 30 mins by microplate reader relative to control; conditions: 0.5 h, time 60 min
T1 sequence (P47989 whole entry): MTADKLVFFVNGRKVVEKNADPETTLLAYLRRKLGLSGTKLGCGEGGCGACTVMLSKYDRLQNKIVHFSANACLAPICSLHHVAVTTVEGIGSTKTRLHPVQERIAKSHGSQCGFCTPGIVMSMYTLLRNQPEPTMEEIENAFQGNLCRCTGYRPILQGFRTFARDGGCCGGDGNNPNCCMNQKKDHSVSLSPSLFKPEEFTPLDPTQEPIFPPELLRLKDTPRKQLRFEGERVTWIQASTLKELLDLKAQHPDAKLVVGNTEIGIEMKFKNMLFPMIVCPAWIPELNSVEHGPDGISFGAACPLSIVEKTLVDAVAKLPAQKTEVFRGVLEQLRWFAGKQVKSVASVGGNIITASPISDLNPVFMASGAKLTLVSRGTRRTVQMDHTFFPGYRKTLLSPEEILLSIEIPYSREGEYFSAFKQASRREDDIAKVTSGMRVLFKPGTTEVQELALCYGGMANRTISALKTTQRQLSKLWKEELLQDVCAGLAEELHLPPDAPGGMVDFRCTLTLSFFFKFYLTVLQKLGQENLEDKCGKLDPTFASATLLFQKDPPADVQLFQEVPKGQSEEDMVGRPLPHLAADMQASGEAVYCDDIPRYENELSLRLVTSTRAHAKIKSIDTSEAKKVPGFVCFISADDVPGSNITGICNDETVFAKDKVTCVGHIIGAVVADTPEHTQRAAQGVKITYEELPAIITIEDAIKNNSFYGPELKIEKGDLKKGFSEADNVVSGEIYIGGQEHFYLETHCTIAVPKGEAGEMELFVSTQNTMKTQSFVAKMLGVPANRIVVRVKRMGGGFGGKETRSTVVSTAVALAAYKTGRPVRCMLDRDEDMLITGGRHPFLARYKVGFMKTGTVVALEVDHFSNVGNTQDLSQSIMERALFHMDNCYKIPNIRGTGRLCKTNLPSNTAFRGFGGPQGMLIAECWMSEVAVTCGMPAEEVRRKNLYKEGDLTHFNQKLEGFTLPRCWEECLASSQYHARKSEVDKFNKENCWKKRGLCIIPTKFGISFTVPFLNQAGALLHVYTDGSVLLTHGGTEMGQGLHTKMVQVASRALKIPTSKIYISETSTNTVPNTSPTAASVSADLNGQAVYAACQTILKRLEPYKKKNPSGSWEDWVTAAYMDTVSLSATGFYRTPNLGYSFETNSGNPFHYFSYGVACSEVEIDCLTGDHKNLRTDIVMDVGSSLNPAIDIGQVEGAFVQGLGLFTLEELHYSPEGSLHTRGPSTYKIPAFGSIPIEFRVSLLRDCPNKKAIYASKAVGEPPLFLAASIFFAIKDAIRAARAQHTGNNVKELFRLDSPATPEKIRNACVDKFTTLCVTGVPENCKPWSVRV

Mus musculus [2] = assay: Hypouricemic activity in hypoxanthine/potassium oxonate-induced hyperuricemic Kunming mouse model assessed as decrease in serum XOD level at 10 mg/kg, po administered for 7 days measured 4 hrs post last dose by automatic biochemical analyzer; assay type: functional, organism-based; conditions: time 7.0 day
[3] = molecular target: T1, Xanthine dehydrogenase/oxidase; assay: Inhibition of XOD (unknown origin) using xanthine as substrate preincubated for 30 mins followed by xanthine addition measured after 30 mins by microplate reader
Mus musculus [4] = assay: Hypouricemic activity in hypoxanthine/potassium oxonate-induced hyperuricemic Kunming mouse model assessed as decrease in liver XOD level at 10 mg/kg, po administered for 7 days measured 4 hrs post last dose by automatic biochemical analyzer; assay type: functional, organism-based; conditions: time 7.0 day

SMILES: CC1(C)C=Cc2cc(-c3cc(=O)c4c(O)cc(O)cc4o3)ccc2O1
- inhibition at 1 µM [1]: < 20%

SMILES: COc1cc(O)c2c(=O)cc(-c3cc(OC)c(OC)c(OC)c3)oc2c1 [CORYMBOSIN]
- inhibition at 1 µM [1]: < 20%

SMILES: COc1ccc(-c2cc(=O)c3c(O)c(OC)c(OC)cc3o2)cc1 [SALVIGENIN]
- inhibition at 1 µM [1]: < 20%

SMILES: Cc1nc(-c2ccc(OCC(C)C)c(C#N)c2)sc1C(=O)O [FEBUXOSTAT]
- Activity (Mus musculus [2]): Active
- IC50 [3]: 0.16 µM
- Activity (Mus musculus [4]): Active
- inhibition at 1 µM [1]: 75%

SMILES: CC1(C)C=Cc2c(O)cc(-c3cc4ccc(O)cc4o3)cc2O1 [MORACIN D]
- IC50 [3]: 5.1 µM
- inhibition at 1 µM [1]: 32%
